What was measured:
[1] = target: T1, first bromodomain of BRD4 (BRD4-BD1) (Homo sapiens, UniProt O60885); test: AlphaLISA, acetylated peptide binding to BRD4-BD1
T1 construct: the first bromodomain of BRD4 (BRD4-BD1)
Procedure: Compound at varying concentrations were dispensed into 384 well Proxiplates (Perkin Elmer) using Echo technology (Labcyte, Inc.; Sunnyvale, CA). For CBP assays, 0.5 μM His-Flag-tagged CBP bromodomain (amino acids 1082–1197) was incubated with 0.003 μM H4-TetraAc-biotin for 20 min at room temperature in 1x reaction buffer (50 mM HEPES pH 7.5, 1 mM TCEP, 0.069 mM Brij-35, 150 mM NaCl, and 0.1 mg/ml BSA). Streptavidin acceptor beads and nickel donor beads (Perkin Elmer) were added to 15 μg/ml with a Combi Multidrop dispenser. Plates were sealed and incubated at 90 min in the dark at room temperature, and plates were read on an Envision plate reader (Perkin Elmer) according to manufacturer’s instructions. For the BET assays, the protocol was similar except that BET family bromodomains were used at 0.03 μM (BRD4-BD1) and incubated with 0.2 μM H4-TetraAc-biotin for 20 min in reaction buffer (40 mM HEPES pH7.0, 1 mM DTT, 0.069 mM Brij-35, 40 mM NaCl, and 0.1 mg/ml BSA). Streptavidin donor beads and Anti-Flag Acceptor beads (Perkin Elmer) were added to 10 μg/ml, and then plates were sealed and incubated in the dark for 60 min prior to reading on the Envision.

[2] = test system: AMO-1; test: Viability, resazurin, 6 days; type: cell-based, human; conditions: for GI50: Homo sapiens, AMO1, 144 h, AMO-1, myeloma, 6 days
Procedure: (§1) Cells were plated at 5000–10000 cells per well of 96-well plates containing titrations of the compounds as indicated. After incubation, the cells were incubated with 500 μg/ml resazurin (Sigma) in PBS for 2–8 hr, and fluorescence was measured (Ex 530 nm, Em 590 nm). Cell cycle analysis was performed as described previously ([Mertz et al., 2011]). For visualization, DNA content histograms were generated with GraphPad Prism. Dose-response curves were generated by plotting the normalized percent growth, percent sub-G1 and percent increase in G0/G1 at each dose values. GI50 values were determined as the concentration at which viability was 50% of the DMSO value and calculated by a four-parameter non-linear regression model in GraphPad Prism.

[3] = test system: KMM-1; test: Viability, resazurin, 6 days; type: cell-based, human; conditions: for GI50: Homo sapiens, 144 h, KMM-1, myeloma, 6 days
Procedure: as §1

[4] = test system: KMS28BM; test: Viability, resazurin, 6 days; type: cell-based, human; conditions: for GI50: Homo sapiens, KMS-28BM, 144 h, myeloma, 6 days
Procedure: as §1

[5] = test system: LP-1; test: Viability, resazurin, 6 days; type: cell-based, human; conditions: for GI50: Homo sapiens, 144 h, LP-1, myeloma, 6 days
Procedure: as §1

[6] = test system: MOLP-8; test: Viability, resazurin, 6 days; type: cell-based, human; conditions: for GI50: Homo sapiens, 144 h, MOLP-8, myeloma, 6 days
Procedure: as §1

[7] = test system: NCI-H929; test: Viability, resazurin, 6 days; type: cell-based, human; conditions: for GI50: Homo sapiens, 144 h, NCI-H929, myeloma, 6 days
Procedure: as §1

[8] = test system: OPM2; test: Viability, resazurin, 6 days; type: cell-based, human; conditions: for GI50: Homo sapiens, OPM-2, 144 h, OPM2, myeloma, 6 days
Procedure: as §1

[9] = test system: RPMI-8226; test: Viability, resazurin, 6 days; type: cell-based, human; conditions: for GI50: Homo sapiens, 144 h, RPMI-8226, myeloma, 6 days
Procedure: as §1

[10] = test system: RS4;11; test: Viability, resazurin, 6 days; type: cell-based, human; conditions: for GI50: Homo sapiens, 144 h, RS4;11, ALL, 6 days
Procedure: as §1

[11] = test system: HL60; test: Viability, resazurin, 6 days; type: cell-based; conditions: Homo sapiens, HL-60, 144 h, HL60, APL
Procedure: as §1

[12] = test system: KMS-11; test: Viability, resazurin, 6 days; type: cell-based; conditions: Homo sapiens, 144 h, KMS-11, myeloma
Procedure: as §1

[13] = test system: KMS12PE; test: Viability, resazurin, 6 days; type: cell-based; conditions: Homo sapiens, KMS-12-PE, 144 h, myeloma
Procedure: as §1

[14] = test system: KMS27; test: Viability, resazurin, 6 days; type: cell-based; conditions: Homo sapiens, KMS-27, 144 h, KMS27, myeloma
Procedure: as §1

[15] = test system: KMS34; test: Viability, resazurin, 6 days; type: cell-based; conditions: Homo sapiens, KMS-34, 144 h, KMS34, myeloma
Procedure: as §1

[16] = test system: KOPN-8; test: Viability, resazurin, 6 days; type: cell-based; conditions: Homo sapiens, 144 h, KOPN-8, ALL
Procedure: as §1

[17] = test system: Kasumi-1; test: Viability, resazurin, 6 days; type: cell-based; conditions: Homo sapiens, 144 h, Kasumi-1, AML
Procedure: as §1

[18] = test system: NB4; test: Viability, resazurin, 6 days; type: cell-based; conditions: Homo sapiens, NB-4, 144 h, NB4, APL
Procedure: as §1

[19] = test system: NOMO-1; test: Viability, resazurin, 6 days; type: cell-based; conditions: Homo sapiens, 144 h, NOMO-1, AML
Procedure: as §1

[20] = test system: PL21; test: Viability, resazurin, 6 days; type: cell-based; conditions: Homo sapiens, PL-21, 144 h, PL21, APL
Procedure: as §1

[21] = test system: ROS 50; test: Viability, resazurin, 6 days; type: cell-based; conditions: Homo sapiens, 144 h, ROS 50, ALL
Procedure: as §1

[22] = test system: SET2; test: Viability, resazurin, 6 days; type: cell-based; conditions: Homo sapiens, SET-2, 144 h, SET2 D6, AML
Procedure: as §1

[23] = test system: SKNO-1; test: Viability, resazurin, 6 days; type: cell-based; conditions: Homo sapiens, 144 h, SKNO-1, AML
Procedure: as §1

[24] = test system: THP-1; test: Viability, resazurin, 6 days; type: cell-based; conditions: Homo sapiens, 144 h, THP-1, AML
Procedure: as §1

Compound | IC50 [1] [µM] | GI50 [2] [µM] | GI50 [3] [µM] | GI50 [4] [µM] | GI50 [5] [µM] | GI50 [6] [µM] | GI50 [7] [µM] | GI50 [8] [µM] | GI50 [9] [µM] | GI50 [10] [µM] | GI50 [11] [µM] | GI50 [12] [µM] | GI50 [13] [µM] | GI50 [14] [µM] | GI50 [15] [µM] | GI50 [16] [µM] | GI50 [17] [µM] | GI50 [18] [µM] | GI50 [19] [µM] | GI50 [20] [µM] | other results
CCC(=O)N1CCOc2c(cc(-c3ccc(OC)c(OC)c3)cc2OC[C@H]2CCCN(C)C2)C1 [I-CBP112] | 8.9 ± 0.06 | 9.39 | > 20 | 4.44 | 1.51 | 3.52 | 3.8 | 2.82 | 14.6 | 15.6 | 4.55 | 16.3 | 12.8 | > 20 | 2.53 | 18.5 | 3.22 | 17.8 | 8.7 | > 20 | GI50 [21]: > 20 µM; GI50 [22]: 12.6 µM; GI50 [23]: 9.5 µM; GI50 [24]: 5.35 µM
COc1ccc(CCc2nc3cc(-c4c(C)noc4C)ccc3n2C[C@H](C)N2CCOCC2)cc1Cl [SGC-CBP30] | 2.1 ± 0.3 | 1.8 | 11.7 | 2.17 | 0.78 | 2.06 | 1.68 | 1.53 | 3.44 | 9.99 | 4.01 | 2.41 | 5.34 | 11.8 | 1.3 | 7.23 | 1.95 | 3.93 | 7.4 | 17 | log2GI50 ([2]; AMO1): 0.85; log2GI50 ([3]; KMM1): 3.54; log2GI50 [4]: 1.12; log2GI50 ([5]; LP1): -0.36; log2GI50 ([6]; MOLP8): 1.04; log2GI50 ([7]; H929): 0.75; log2GI50 ([8]; OPM2): 0.61; log2GI50 ([9]; RPMI8226): 1.78; log2GI50 ([10]; RS411): 3.32; GI50 [21]: 16.4 µM; GI50 [22]: 4.47 µM; GI50 [23]: 4.8 µM; GI50 [24]: 2.85 µM

Source: PMC4775225, “Bromodomain inhibition of the transcriptional coactivators CBP/EP300 as a therapeutic strategy to target the IRF4 network in multiple myeloma” (eLife, 2016)
